# Reference: PubChem BioAssay AID1259407 (Chemical Carcinogenesis Research Information System (CCRIS), 2018)
# Calls of active or inactive are those of the source. The rule behind the calls is not given here.
# Tested on: CCRIS mutagenicity, Ames/micronucleus/aberration tests
# Experiment: CCRIS mutagenicity studies
# [1] = Test System: AMES SALMONELLA TYPHIMURIUM, Strain/Indicator: TA98, Metabolic Activation: NONE, Method: STANDARD PLATE
# [2] = Test System: AMES SALMONELLA TYPHIMURIUM, Strain/Indicator: TA100, Metabolic Activation: NONE, Method: STANDARD PLATE
# [3] = Test System: AMES SALMONELLA TYPHIMURIUM, Strain/Indicator: TA100, Metabolic Activation: RAT, LIVER, S-9, AROCLOR 1254, Method: STANDARD PLATE
# [4] = Test System: AMES SALMONELLA TYPHIMURIUM, Strain/Indicator: TA1535, Metabolic Activation: NONE, Method: STANDARD PLATE
# [5] = Test System: AMES SALMONELLA TYPHIMURIUM, Strain/Indicator: TA1535, Metabolic Activation: RAT, LIVER, S-9, AROCLOR 1254, Method: STANDARD PLATE
# [6] = Test System: AMES SALMONELLA TYPHIMURIUM, Strain/Indicator: TA1537, Metabolic Activation: NONE, Method: STANDARD PLATE
# [7] = Test System: AMES SALMONELLA TYPHIMURIUM, Strain/Indicator: TA1537, Metabolic Activation: RAT, LIVER, S-9, AROCLOR 1254, Method: STANDARD PLATE
# [8] = Test System: AMES SALMONELLA TYPHIMURIUM, Strain/Indicator: TA98, Metabolic Activation: RAT, LIVER, S-9, AROCLOR 1254, Method: STANDARD PLATE
# [9] = Test System: AMES SALMONELLA TYPHIMURIUM, Strain/Indicator: TA98, Metabolic Activation: NONE, Method: PREINCUBATION
# [10] = Test System: AMES SALMONELLA TYPHIMURIUM, Strain/Indicator: TA100, Metabolic Activation: NONE, Method: PREINCUBATION
smiles,measurement,setting,value
O=C1c2cccc(S(=O)(=O)O)c2C(=O)c2cccc([N+](=O)[O-])c21,mutagenic call,[1],active; positive
same,mutagenic call,[2],inactive; negative
same,mutagenic call,[3],inactive; negative
same,mutagenic call,[4],inactive; negative
same,mutagenic call,[5],inactive; negative
same,mutagenic call,[6],inactive; negative
same,mutagenic call,[7],inactive; negative
same,mutagenic call,"Test System: AMES SALMONELLA TYPHIMURIUM, Strain/Indicator: TA1538, Metabolic Activation: NONE, Method: STANDARD PLATE",active; positive
same,mutagenic call,"Test System: AMES SALMONELLA TYPHIMURIUM, Strain/Indicator: TA1978, Metabolic Activation: NONE, Method: STANDARD PLATE",inactive; negative
Cc1ncc(CO)c(CO)c1O,mutagenic call,"Test System: AMES SALMONELLA TYPHIMURIUM, Strain/Indicator: TA97A, Metabolic Activation: NONE, Method: PREINCUBATION",inactive; negative
same,mutagenic call,"Test System: AMES SALMONELLA TYPHIMURIUM, Strain/Indicator: TA97A, Metabolic Activation: RAT, LIVER, S-9, AROCLOR 1254, Method: PREINCUBATION",inactive; negative
same,mutagenic call,"Test System: AMES SALMONELLA TYPHIMURIUM, Strain/Indicator: TA102, Metabolic Activation: NONE, Method: PREINCUBATION",inactive; negative
same,mutagenic call,"Test System: AMES SALMONELLA TYPHIMURIUM, Strain/Indicator: TA102, Metabolic Activation: RAT, LIVER, S-9, AROCLOR 1254, Method: PREINCUBATION",inactive; negative
O=C(O)c1ccc([N+](=O)[O-])o1,mutagenic call,"Test System: AMES SALMONELLA TYPHIMURIUM, Strain/Indicator: TA98(1,8-DNP6), Metabolic Activation: NONE, Method: STANDARD PLATE",inactive; negative
same,mutagenic call,"Test System: AMES SALMONELLA TYPHIMURIUM, Strain/Indicator: TA98(1,8-DNP6), Metabolic Activation: RAT, LIVER, S-9, 3-METHYLCHOLANTHRENE, Method: STANDARD PLATE",inactive; negative
same,mutagenic call,"Test System: AMES SALMONELLA TYPHIMURIUM, Strain/Indicator: TA98(NR), Metabolic Activation: NONE, Method: STANDARD PLATE",inactive; negative
same,mutagenic call,"Test System: AMES SALMONELLA TYPHIMURIUM, Strain/Indicator: TA98(NR), Metabolic Activation: RAT, LIVER, S-9, 3-METHYLCHOLANTHRENE, Method: STANDARD PLATE",inactive; negative
same,mutagenic call,[1],inactive; negative
same,mutagenic call,"Test System: AMES SALMONELLA TYPHIMURIUM, Strain/Indicator: TA98, Metabolic Activation: RAT, LIVER, S-9, 3-METHYLCHOLANTHRENE, Method: STANDARD PLATE",inactive; negative
same,mutagenic call,[2],active; positive
CC(=O)OCc1c2ccccc2c(C)c2ccccc12,mutagenic call,[1],active; positive
same,mutagenic call,[2],active; positive
CCN(CC)C(=S)S,mutagenic call,"End Point: IN VITRO CHROMOSOMAL ABERRATIONS, Test System: CHO CELLS, Metabolic Activation: RAT, LIVER, S-9, AROCLOR 1254",inactive; negative
same,mutagenic call,"End Point: IN VITRO CHROMOSOMAL ABERRATIONS, Test System: TK6 HUMAN LYMPHOBLASTS, Metabolic Activation: NONE",active; positive (weak response)
same,mutagenic call,"Test System: MOUSE LYMPHOMA, Strain/Indicator: L5178Y (TK+/TK-), Metabolic Activation: NONE, Method: SUSPENSION/PLATE",active; positive
O=S(=O)(Oc1ccc(Cl)c(Cl)c1)c1cccc2cccnc12,mutagenic call,[1],inactive; negative
same,mutagenic call,[8],active; positive
same,mutagenic call,[2],inactive; negative
same,mutagenic call,[3],active; positive
same,mutagenic call,[4],inactive; negative
same,mutagenic call,[5],inactive; negative
same,mutagenic call,[6],inactive; negative
same,mutagenic call,[7],inactive; negative
CO[C@H](C(=O)[C@@H](O)[C@@H](C)O)[C@@H]1Cc2cc3cc(O[C@H]4C[C@@H](O[C@H]5C[C@@H](O)[C@H](O)[C@@H](C)O5)[C@H](O)[C@@H](C)O4)c(C)c(O)c3c(O)c2C(=O)[C@H]1O[C@H]1C[C@@H](O[C@H]2C[C@@H](O[C@H]3C[C@](C)(O)[C@H](O)[C@@H](C)O3)[C@@H](O)[C@@H](C)O2)[C@H](O)[C@@H](C)O1,mutagenic call,"Test System: CHINESE HAMSTER OVARY, Strain/Indicator: CHO (HGPRT)/6-THIOGUANINE, Metabolic Activation: NONE, Method: PREINCUBATION",active; positive
OCCCCCl,mutagenic call,[9],inactive; negative
same,mutagenic call,[10],active; positive
same,mutagenic call,"Test System: AMES SALMONELLA TYPHIMURIUM, Strain/Indicator: TA100, Metabolic Activation: RAT, LIVER, S-9, KANECHLOR 500, Method: PREINCUBATION",active; positive
COc1ccc(-c2noc(CC(=O)O)c2-c2ccc(OC)cc2)cc1,mutagenic call,[9],inactive; negative
same,mutagenic call,"Test System: AMES SALMONELLA TYPHIMURIUM, Strain/Indicator: TA98, Metabolic Activation: RAT, LIVER, S-9, PHENOBARBITAL AND 5,6-BENZOFLAVONE, Method: PREINCUBATION",inactive; negative
same,mutagenic call,[10],inactive; negative
same,mutagenic call,"Test System: AMES SALMONELLA TYPHIMURIUM, Strain/Indicator: TA100, Metabolic Activation: RAT, LIVER, S-9, PHENOBARBITAL AND 5,6-BENZOFLAVONE, Method: PREINCUBATION",inactive; negative
same,mutagenic call,"Test System: AMES SALMONELLA TYPHIMURIUM, Strain/Indicator: TA1535, Metabolic Activation: NONE, Method: PREINCUBATION",inactive; negative
same,mutagenic call,"Test System: AMES SALMONELLA TYPHIMURIUM, Strain/Indicator: TA1535, Metabolic Activation: RAT, LIVER, S-9, PHENOBARBITAL AND 5,6-BENZOFLAVONE, Method: PREINCUBATION",inactive; negative
same,mutagenic call,"Test System: AMES SALMONELLA TYPHIMURIUM, Strain/Indicator: TA1537, Metabolic Activation: NONE, Method: PREINCUBATION",inactive; negative
same,mutagenic call,"Test System: AMES SALMONELLA TYPHIMURIUM, Strain/Indicator: TA1537, Metabolic Activation: RAT, LIVER, S-9, PHENOBARBITAL AND 5,6-BENZOFLAVONE, Method: PREINCUBATION",inactive; negative
same,mutagenic call,"Test System: E. COLI, Strain/Indicator: WP2 UVRA, Metabolic Activation: NONE, Method: PREINCUBATION",inactive; negative
same,mutagenic call,"Test System: E. COLI, Strain/Indicator: WP2 UVRA, Metabolic Activation: RAT, LIVER, S-9, PHENOBARBITAL AND 5,6-BENZOFLAVONE, Method: PREINCUBATION",inactive; negative
O=C(N=c1sn(C(=O)c2ccc([N+](=O)[O-])cc2)c2ccc(Cl)cc12)c1ccc([N+](=O)[O-])cc1,mutagenic call,"Test System: AMES SALMONELLA TYPHIMURIUM, Strain/Indicator: TA100, Metabolic Activation: S-9, Method: STANDARD PLATE",active; positive
c1ccc2c(c1)-c1ccccc1C1OC21 (stereo not drawn),mutagenic call,[1],active; positive
COP(=S)(OC)Oc1ccc(N)c(C)c1,mutagenic call,[1],inactive; negative
same,mutagenic call,[8],inactive; negative
same,mutagenic call,[2],inactive; negative
same,mutagenic call,[3],active; positive
